Laboratory results taken from patent US12059425B2, “Heterocyclic compounds and uses thereof” (Kumquat Biosciences Inc., priority 2022, dated 2024).
pIC50: −log10 of the molar value.

How the values were obtained:
K-Ras G12S = molecular target: T1, K-Ras G12S (Homo sapiens, UniProt P01116, G12S); assay: PPI-HTRF assay, K-Ras G12S / SOS1 interaction; type: biochemical; conditions: read-out: PPI-HTRF-5 nM (K-Ras G12S IC50)
T1 construct: made in house; host or cells: E. coli, e.g. BL21 (DE3)
Outline: (§1)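 GST-tagged K-Ras (WT or mutant) bound to anti-GST-Eu was mixed with His-hSOS1 bound to anti-6His-XL665 in pH 7.4 HEPES/NaCl/DTT/BSA/Igepal buffer. After ~10 min or longer, HTRF was read (ex 337 nm, em 620/665 nm). IC50 was derived from the 665/620 ratio, with duplicates tested from 10 μM down to 0.01 μM.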

K-Ras G12D = molecular target: T2, K-Ras G12D (Homo sapiens, UniProt P01116, G12D); assay: PPI-HTRF assay, K-Ras G12D / SOS1 interaction; type: biochemical; conditions: HTRF, K-Ras G12D; read-out: PPI-HTRF-5 nM (K-Ras G12D IC50)
T2 construct: made in house; host or cells: E. coli, e.g. BL21 (DE3)
Outline: as §1

A549 cells = assay: Ras cellular assay, cell proliferation A549; type: cell-based; conditions: Homo sapiens
Outline: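 G12S-mutant A549 cells (800/well) in RPMI-1640 plus 10% heat-inactivated FBS, standard or ultra-low attachment 384-well plates, dosed the day after plating with a 10-point 3-fold series. Viability by CellTiter-Glo luminescence about 6 days later; IC50 from four-parameter fit.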

wildtype K-Ras = molecular target: T3, wildtype K-Ras (Homo sapiens, UniProt P01116); assay: PPI-HTRF assay, wildtype K-Ras / SOS1 interaction; type: biochemical; conditions: HTRF, K-Ras wt; read-out: PPI-HTRF-5 nM (K-Ras wt IC50)
T3 construct: made in house; host or cells: E. coli, e.g. BL21 (DE3)
Outline: as §1

GP2D cells = assay: Ras cellular assay, cell proliferation GP2D; type: cell-based
Outline: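 Growth inhibition read by CellTiter-Glo luminescence roughly 5 days after compound addition, which followed overnight plating of G12D-mutant GP2D cells (e.g., 800 per well). Compounds were tested as a serial dilution (e.g., 9 points, 3-fold), with IC50 fitted by four-parameter model.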

SW620 cells = assay: Ras cellular assay, cell proliferation SW620; type: cell-based; conditions: Homo sapiens, SW-620
Text: For example, this assay can be also used to assess selective growth inhibition of a mutant Ras protein relative to a wildtype, or relative to a different mutant Ras protein.

K-Ras G12V = molecular target: T4, K-Ras G12V (Homo sapiens, UniProt P01116, G12V); assay: PPI-HTRF assay, K-Ras G12V / SOS1 interaction; type: biochemical; conditions: HTRF, K-Ras G12V; read-out: PPI-HTRF-5 nM (K-Ras G12V IC50)
T4 construct: made in house; host or cells: E. coli, e.g. BL21 (DE3)
Outline: as §1

T1 sequence (P01116 1-188 isoform P01116-2 G12S): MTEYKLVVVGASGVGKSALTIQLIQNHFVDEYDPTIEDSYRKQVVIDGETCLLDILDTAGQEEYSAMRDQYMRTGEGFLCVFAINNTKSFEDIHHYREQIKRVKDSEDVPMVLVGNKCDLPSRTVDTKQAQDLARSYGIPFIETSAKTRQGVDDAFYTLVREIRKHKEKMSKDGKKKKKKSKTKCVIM
T4 sequence (P01116 1-188 isoform P01116-2 G12V): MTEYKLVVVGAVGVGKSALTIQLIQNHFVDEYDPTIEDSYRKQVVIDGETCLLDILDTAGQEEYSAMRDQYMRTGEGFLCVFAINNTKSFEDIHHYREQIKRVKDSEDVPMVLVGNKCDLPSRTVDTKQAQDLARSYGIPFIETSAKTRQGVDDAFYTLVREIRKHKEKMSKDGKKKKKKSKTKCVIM
T2 sequence (P01116 1-188 isoform P01116-2 G12D): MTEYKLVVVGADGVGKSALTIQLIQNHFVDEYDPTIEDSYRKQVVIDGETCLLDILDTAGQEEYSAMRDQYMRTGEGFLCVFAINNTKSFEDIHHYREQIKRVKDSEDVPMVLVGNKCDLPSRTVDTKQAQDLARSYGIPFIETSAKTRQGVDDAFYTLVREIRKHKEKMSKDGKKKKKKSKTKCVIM
T3 sequence (P01116 1-188 isoform P01116-2): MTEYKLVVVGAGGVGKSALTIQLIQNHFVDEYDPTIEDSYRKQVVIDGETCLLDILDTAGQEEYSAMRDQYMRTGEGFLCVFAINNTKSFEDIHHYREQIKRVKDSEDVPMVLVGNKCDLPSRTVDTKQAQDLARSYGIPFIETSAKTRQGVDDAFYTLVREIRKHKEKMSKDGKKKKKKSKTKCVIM

N#Cc1c(N)sc2c(F)ccc(-c3c(Cl)c4c5c(nc(OC[C@@]67CCCN6C[C@H](F)C7)nc5c3F)N(CC(F)F)C3COCC3CO4)c12 (stereo partly drawn) [compound 188, 2-amino-4-(6-chloro-12-(2,2-difluoroethyl)-4-fluoro-2-(((2R,7aS)-2-fluorotetrahydro-1H-pyrrolizin-7a(5H)-yl)methoxy)-8a,9,11a,12-tetrahydro-8H,11H-furo[3′,4′:6,7][1,5]oxazocino[4,3,2-de]quinazolin-5-yl)-7-fluorobenzo[b]thiophene-3-carbonitrile]
pIC50 (K-Ras G12S): > 5.30
pIC50 (K-Ras G12D): > 5.30
pIC50 (A549 cells): > 5.30
pIC50 (wildtype K-Ras): > 5.30
pIC50 (GP2D cells): > 5.30
pIC50 (SW620 cells): > 5.30
pIC50 (K-Ras G12V): > 5.30

N#Cc1c(N)sc2c(F)ccc(-c3c(Cl)c4c5c(nc(OC[C@@]67CCCN6C[C@H](F)C7)nc5c3F)N(C3CC3)C3COCC3CO4)c12 (stereo partly drawn) [compound 125, 2-amino-4-(6-chloro-12-cyclopropyl-4-fluoro-2-(((2R,7aS)-2-fluorotetrahydro-1H-pyrrolizin-7a(5H)-yl)methoxy)-8a,9,11a,12-tetrahydro-8H,11H-furo[3′,4′:6,7][1,5]oxazocino[4,3,2-de]quinazolin-5-yl)-7-fluorobenzo[b]thiophene-3-carbonitrile]
pIC50 (K-Ras G12S): > 5.30
pIC50 (K-Ras G12D): > 5.30
pIC50 (A549 cells): > 5.30
pIC50 (wildtype K-Ras): > 5.30
pIC50 (GP2D cells): > 5.30
pIC50 (SW620 cells): > 5.30
pIC50 (K-Ras G12V): > 5.30

N#Cc1c(N)sc2c(F)ccc(-c3c(Cl)c4c5c(nc(OC[C@@]67CCCN6C[C@H](F)C7)nc5c3F)N3C(CCC3COC(F)F)CO4)c12 (stereo partly drawn) [compound 161, 2-amino-4-(6-chloro-11-((difluoromethoxy)methyl)-4-fluoro-2-(((2R,7aS)-2-fluorotetrahydro-1H-pyrrolizin-7a(5H)-yl)methoxy)-8a,9,10,11-tetrahydro-8H-pyrrolo[2′,1′:3,4][1,4]oxazepino[5,6,7-de]quinazolin-5-yl)-7-fluorobenzo[b]thiophene-3-carbonitrile]
pIC50 (K-Ras G12S): > 5.30
pIC50 (K-Ras G12D): > 5.30
pIC50 (A549 cells): > 5.30
pIC50 (wildtype K-Ras): > 5.30
pIC50 (GP2D cells): > 5.30
pIC50 (SW620 cells): > 5.30
pIC50 (K-Ras G12V): > 5.30

N#Cc1c(N)sc2c(F)ccc(-c3c(Cl)c4c5c(nc(OCC67CCCN6C[C@H](F)C7)nc5c3F)N3CCCCCC3CO4)c12 (stereo partly drawn) [compound 193, 2-amino-4-(3-chloro-1-fluoro-13-(((2R,7aS)-2-fluorotetrahydro-1H-pyrrolizin-7a(5H)-yl)methoxy)-5a,6,7,8,9,10-hexahydro-5H-azepino[2′,1′:3,4][1,4]oxazepino[5,6,7-de]quinazolin-2-yl)-7-fluorobenzo[b]thiophene-3-carbonitrile]
pIC50 (K-Ras G12S): > 5.30
pIC50 (K-Ras G12D): > 5.30
pIC50 (A549 cells): > 5.30
pIC50 (wildtype K-Ras): > 5.30
pIC50 (GP2D cells): > 5.30
pIC50 (SW620 cells): > 5.30
pIC50 (K-Ras G12V): > 5.30

N#Cc1c(N)sc2c(F)ccc(-c3c(Cl)c4c5c(nc(OC[C@@]67CCCN6C[C@H](F)C7)nc5c3F)N3CC[C@@H]3CO4)c12 [compound 139, 2-amino-4-((11aR)-9-chloro-7-fluoro-5-(((2R,7aS)-2-fluorotetrahydro-1H-pyrrolizin-7a(5H)-yl)methoxy)-1,2,11,11a-tetrahydroazeto[2′,1′:3,4][1,4]oxazepino [5,6,7-de]quinazolin-8-yl)-7-fluorobenzo[b]thiophene-3-carbonitrile]
pIC50 (K-Ras G12S): > 5.30
pIC50 (K-Ras G12D): > 5.30
pIC50 (A549 cells): < 5.30
pIC50 (wildtype K-Ras): > 5.30
pIC50 (GP2D cells): > 5.30
pIC50 (SW620 cells): > 5.30
pIC50 (K-Ras G12V): > 5.30

CN1c2nc(OC[C@@]34CCCN3C[C@H](F)C4)nc3c(F)c(-c4ccc(F)c5sc(N)c(C#N)c45)c(Cl)c(c23)OCC2CNCC21 (stereo partly drawn) [compound 140, 2-amino-4-(6-chloro-4-fluoro-2-(((2R,7aS)-2-fluorotetrahydro-1H-pyrrolizin-7a(5H)-yl)methoxy)-12-methyl-8a,9,10,11,11a,12-hexahydro-8H-pyrrolo[3′,4′:6,7][1,5]oxazocino[4,3,2-de]quinazolin-5-yl)-7-fluorobenzo[b]thiophene-3-carbonitrile]
pIC50 (K-Ras G12S): > 5.30
pIC50 (K-Ras G12D): > 5.30
pIC50 (A549 cells): > 5.30
pIC50 (wildtype K-Ras): > 5.30
pIC50 (GP2D cells): > 5.30
pIC50 (SW620 cells): > 5.30
pIC50 (K-Ras G12V): > 5.30

CN1c2nc(OC[C@@]34CCCN3C[C@H](F)C4)nc3c(F)c(-c4ccc(F)c5sc(N)c(C#N)c45)c(Cl)c(c23)OCC2COCC21 (stereo partly drawn) [compound 141, 2-amino-4-(6-chloro-4-fluoro-2-(((2R,7aS)-2-fluorotetrahydro-1H-pyrrolizin-7a(5H)-yl)methoxy)-12-methyl-8a,9,11a,12-tetrahydro-8H,11H-furo[3′,4′:6,7][1,5]oxazocino[4,3,2-de]quinazolin-5-yl)-7-fluorobenzo[b]thiophene-3-carbonitrile]
pIC50 (K-Ras G12S): > 5.30
pIC50 (K-Ras G12D): > 5.30
pIC50 (A549 cells): > 5.30
pIC50 (wildtype K-Ras): > 5.30
pIC50 (GP2D cells): > 5.30
pIC50 (SW620 cells): > 5.30
pIC50 (K-Ras G12V): > 5.30

N#Cc1c(N)sc2c(F)ccc(-c3c(Cl)c4c5c(nc(OC[C@@]67CCCN6C[C@H](F)C7)nc5c3F)N3CC(OC(F)F)CCC3CO4)c12 (single isomer, unassigned) [compound 148]
pIC50 (K-Ras G12S): > 5.30
pIC50 (K-Ras G12D): > 5.30
pIC50 (A549 cells): < 5.30
pIC50 (wildtype K-Ras): > 5.30
pIC50 (GP2D cells): > 5.30
pIC50 (SW620 cells): > 5.30
pIC50 (K-Ras G12V): > 5.30

N#Cc1c(N)sc2c(F)ccc(-c3c(Cl)c4c5c(nc(OC[C@@]67CCCN6C[C@H](F)C7)nc5c3F)N3CC[C@@H]3CCO4)c12 [compound 167, 2-amino-4-((12aR)-9-chloro-7-fluoro-5-(((2R,7aS)-2-fluorotetrahydro-1H-pyrrolizin-7a(5H)-yl)methoxy)-1,11,12,12a-tetrahydro-2H-azeto[11,2′:5,6][1,5]oxazocino[4,3,2-de]quinazolin-8-yl)-7-fluorobenzo[b]thiophene-3-carbonitrile]
pIC50 (K-Ras G12S): > 5.30
pIC50 (K-Ras G12D): > 5.30
pIC50 (A549 cells): > 5.30
pIC50 (wildtype K-Ras): > 5.30
pIC50 (GP2D cells): > 5.30
pIC50 (SW620 cells): > 5.30
pIC50 (K-Ras G12V): > 5.30

N#Cc1c(N)sc2c(F)ccc(-c3c(Cl)c4c5c(nc(OC[C@@]67CCCN6C[C@H](F)C7)nc5c3F)N3CCCC[C@@H]3CCO4)c12 [compound 196, 2-amino-4-((6aR)-3-chloro-1-fluoro-13-(((2R,7aS)-2-fluorotetrahydro-1H-pyrrolizin-7a(5H)-yl)methoxy)-6,6a,7,8,9,10-hexahydro-5H-pyrido[11,2′:5,6][1,5]oxazocino[4,3,2-de]quinazolin-2-yl)-7-fluorobenzo[b]thiophene-3-carbonitrile]
pIC50 (K-Ras G12S): > 5.30
pIC50 (K-Ras G12D): > 5.30
pIC50 (A549 cells): > 5.30
pIC50 (wildtype K-Ras): > 5.30
pIC50 (GP2D cells): > 5.30
pIC50 (SW620 cells): > 5.30
pIC50 (K-Ras G12V): > 5.30

N#Cc1c(N)sc2c(F)ccc(-c3c(Cl)c4c5c(nc(OC[C@@]67CCCN6C[C@H](F)C7)nc5c3F)N(CC3CC3)C3COCC3CO4)c12 (stereo partly drawn) [compound 101, 2-amino-4-(6-chloro-12-(cyclopropylmethyl)-4-fluoro-2-(((2R,7aS)-2-fluorotetrahydro-1H-pyrrolizin-7a(5H)-yl)methoxy)-8a,9,11a,12-tetrahydro-8H,11H-furo[3′,4′:6,7][1,5]oxazocino[4,3,2-de]quinazolin-5-yl)-7-fluorobenzo[b]thiophene-3-carbonitrile]
pIC50 (K-Ras G12S): > 5.30
pIC50 (K-Ras G12D): > 5.30
pIC50 (A549 cells): > 5.30
pIC50 (wildtype K-Ras): > 5.30
pIC50 (GP2D cells): > 5.30
pIC50 (SW620 cells): > 5.30
pIC50 (K-Ras G12V): > 5.30

CN1c2nc(OC[C@@]34CCCN3C[C@H](F)C4)nc3c(F)c(-c4ccc(F)c5sc(N)c(C#N)c45)c(Cl)c(c23)OCC2CN(C(=O)[C@H]3CN3)CC21 (stereo partly drawn) [compound 124, 2-amino-4-(10-((R)-aziridine-2-carbonyl)-6-chloro-4-fluoro-2-(((2R,7aS)-2-fluorotetrahydro-1H-pyrrolizin-7a(5H)-yl)methoxy)-12-methyl-8a,9,10,11,11a,12-hexahydro-8H-pyrrolo[3′,4′:6,7][1,5]oxazocino[4,3,2-de]quinazolin-5-yl)-7-fluorobenzo[b]thiophene-3-carbonitrile]
pIC50 (K-Ras G12S): > 5.30
pIC50 (K-Ras G12D): > 5.30
pIC50 (A549 cells): < 5.30
pIC50 (wildtype K-Ras): > 5.30
pIC50 (GP2D cells): > 5.30
pIC50 (SW620 cells): > 5.30
pIC50 (K-Ras G12V): > 5.30

N#Cc1c(N)sc2c(F)ccc(-c3c(Cl)c4c5c(nc(OC[C@@]67CCCN6C[C@H](F)C7)nc5c3F)N3CC(F)(F)C[C@H]3CO4)c12 [compound 181]
pIC50 (K-Ras G12S): > 5.30
pIC50 (K-Ras G12D): > 5.30
pIC50 (A549 cells): > 5.30
pIC50 (wildtype K-Ras): > 5.30
pIC50 (GP2D cells): > 5.30
pIC50 (SW620 cells): > 5.30
pIC50 (K-Ras G12V): > 5.30
